Paper PMC7797213, “Vascular effects of serelaxin in patients with stable coronary artery disease: a randomized placebo-controlled trial” (Cardiovascular Research, 2020)

Legend:
Format in all cases: in vivo, human
[1] = test system: patients with stable coronary artery disease; experiment: Adenosine stress perfusion CMR: myocardial blood flow and myocardial perfusion reserve
Experimental: (30 μg/kg/day) or matching placebo, using a computerized randomization system involving concealed treatment arms. The co-primary endpoints were the change from baseline in global myocardial perfusion reserve (MPR) measured by quantitative perfusion cardiac magnetic resonance (CMR) imaging and the change from baseline in augmentation index (AIx) measured by applanation tonometry. The primary endpoints of MPR and AIx were assessed at baseline and 47 h post-commencement of the infusion (Figure 1).
A standardized CMR protocol was acquired on 1.5 T (Siemens Avanto) or 3.0 T (Siemens Skyra and Verio) magnetic resonance imaging (MRI) scanners. The CMR protocol included standard localizers, long- and short-axis cine acquisitions, stress and rest first-pass perfusion, and late gadolinium enhancement (LGE) imaging as previously described.[24] For perfusion imaging, a saturation recovery prepared fast gradient echo sequence was used to acquire dynamic contrast-enhanced CMR during adenosine stress (140–280 µg/kg/min for 3 min) and rest, during first-pass of the IV administered contrast agent (Gadovist, 0.05 mmol/kg, 5 mL/s), followed by 20 mL saline injection (5 mL/s). Three short-axis planes through the left ventricle (basal, mid-ventricular, and apical) were obtained.
CMR image collection, blinding, and handling were managed by an independent imaging contract-research organization (CRO; VirtualScopics, Inc., Rochester, NY, USA). The CMR quantitative analyses were performed by blinded academic readers with >3 years of CMR experience (D.C., A.R., and C.B.). Cine images for ventricular volumes and mass and myocardial perfusion images were manually contoured (QMass, Medis, Leiden, Netherlands). Myocardial blood flow (MBF) was derived from stress and rest perfusion images using a Fermi deconvolution method,[25] implemented in MATLAB.[26] Global MPR was calculated from the ratio of global MBF evaluated at stress and at rest (MPR = stress MBF/rest MBF). Global MBF was calculated by averaging the MBF (mL/g/min) for basal, mid, and apical short-axis left ventricular slices. Ascending and descending aortic strain and distensibility were derived from manually contoured end-diastolic and end-systolic aortic cine images. Aortic strain (AS, unit free fraction) = [maximum aortic lumen area − minimum aortic lumen area]/minimum aortic lumen area. Aortic distensibility (AD, mmHg^−^1) = aortic strain/pulse pressure. Ascending aortic peak flow velocity (m/s) was derived from manually contoured phase-velocity encoding sequence images (QFlow, Medis, Leiden, Netherlands). The presence or absence of myocardial scar was qualitatively assessed on the LGE images.

endothelin-1 = experiment: Plasma biomarker endothelin-1; settings: for Endothelin-1, geo-mean (95% CI): plasma
Experimental: (§1) Biomarkers reported include: N-terminal pro-brain natriuretic peptide (NT-proBNP), high-sensitivity troponin T (hsTnT) measured to assess myocardial safety; cystatin C measured to access renal function; the biologically active form of endothelin-1 (1–21), measured to assess vascular function. Venous blood samples were collected at 0 (pre-dose), 24, 48, and 54 h, Day 30, and Day 180. NT-proBNP, hsTnT, and cystatin C samples were collected in EDTA tubes while endothelin-1 samples were collected in EDTA tubes containing aprotinin. Plasma was immediately frozen at −70°C pending analysis in complete patient sets. Commercial biomarker kits were as follows: hsTnT from Roche Diagnostics GmbH, Germany; cystatin C from Gentian, Moss, Norway; and active endothelin-1 […] from Biomedica Medizinprodukte, Vienna, Austria.
(§2) For the biomarker analyses, baseline was defined as the pre-dose assessment on Day 1. Raw values as well as changes from baseline were summarized by treatment and time. Descriptive statistics included geometric mean and 95% CI. For geometric means of change from baseline, a ratio to baseline was used to determine percentage change by first calculating in the log domain and then back transforming using exponentiation.
(§3) Baseline corresponds to the value at day 1 pre-dose. For change from baseline, geometric mean and its CI are calculated for the value (post) to baseline ratio.

cystatin C = experiment: Plasma biomarker cystatin C; settings: for Cystatin C, geo-mean (95% CI): plasma
Experimental: as §1, §2, §3

[2] = 0 h (pre-dose baseline), mean ± SD, n=22
[3] = 0 h (pre-dose baseline), mean ± SD, n=24
[4] = 47 h post dose, mean ± SD, n=23
[5] = 47 h post dose, mean ± SD, n=24
[6] = Bayesian, criterion 1: increase between serelaxin and placebo greater than zero
[7] = Bayesian, criterion 2: increase between serelaxin and placebo greater than 20%
[8] = baseline to 47 h, 48 h IV infusion 30 µg/kg/day, ANCOVA, n=22
[9] = baseline to day 3, Bayesian analysis
[10] = baseline to day 3, Bayesian analysis, non-informative priors, n=22
[11] = change baseline to 47 h, ANCOVA
[12] = 48 h, n=28, listed as serelaxin

Substance: Serelaxin
- Apical MBF rest, absolute value [1, 2]: 1.41 ± 0.43 (22) mL/g/min
- Apical perfusion reserve index, absolute value [1, 2]: 2.24 ± 0.89 (22)
- Basal MBF rest, absolute value [1, 2]: 1.16 ± 0.39 (22) mL/g/min
- Basal perfusion reserve index, absolute value [1, 2]: 2.25 ± 0.92 (22)
- Global MPR, absolute value [1, 2]: 2.25 ± 0.88 (22)
- Mean global MBF rest, absolute value [1, 2]: 1.26 ± 0.37 (22) mL/g/min
- Mid MBF rest, absolute value [1, 2]: 1.22 ± 0.37 (22) mL/g/min
- Mid perfusion reserve index, absolute value [1, 2]: 2.24 ± 0.98 (22)
- Apical MBF stress, absolute value [1, 3]: 2.82 ± 1.00 (24) mL/g/min
- Basal MBF stress, absolute value [1, 3]: 2.34 ± 0.90 (24) mL/g/min
- Mean global MBF stress, absolute value [1, 3]: 2.54 ± 0.87 (24) mL/g/min
- Mid MBF stress, absolute value [1, 3]: 2.45 ± 0.84 (24) mL/g/min
- Apical MBF stress, absolute value [1, 4]: 2.66 ± 0.73 (23) mL/g/min
- Apical perfusion reserve index, absolute value [1, 4]: 2.01 ± 0.60 (23)
- Basal MBF stress, absolute value [1, 4]: 2.14 ± 0.84 (23) mL/g/min
- Global MPR, absolute value [1, 4]: 1.98 ± 0.59 (23)
- Mean global MBF stress, absolute value [1, 4]: 2.32 ± 0.67 (23) mL/g/min
- Mid MBF stress, absolute value [1, 4]: 2.16 ± 0.70 (23) mL/g/min
- Mid perfusion reserve index, absolute value [1, 4]: 1.93 ± 0.70 (23)
- Apical MBF rest, absolute value [1, 5]: 1.41 ± 0.34 (24) mL/g/min
- Basal MBF rest, absolute value [1, 5]: 1.13 ± 0.39 (24) mL/g/min
- Mean global MBF rest, absolute value [1, 5]: 1.24 ± 0.32 (24) mL/g/min
- Mid MBF rest, absolute value [1, 5]: 1.17 ± 0.31 (24) mL/g/min
- Mean global MBF rest, probability of success Pr (Criterion 1|data) [1, 6]: 0.80
- Mean global MBF stress, probability of success Pr (Criterion 1|data) [1, 6]: 0.38
- Global MPR, probability of success Pr (Criterion 1|data) ([1]; Bayesian, criterion 1: increase in MPRI between serelaxin and placebo greater than zero): 0.22
- Mean global MBF rest, probability of success Pr (Criterion 2|data) [1, 7]: 0.0014
- Mean global MBF stress, probability of success Pr (Criterion 2|data) [1, 7]: 0.0006
- Global MPR, probability of success Pr (Criterion 2|data) ([1]; Bayesian, criterion 2: increase in MPRI between serelaxin and placebo greater than 20%): 0.0002
- Global MPR, change from baseline (adjusted mean) [1, 8]: -0.24
- Mean global MBF rest, change from baseline (adjusted mean) [1, 8]: 0.01 mL/g/min
- Mid MBF rest, change from baseline (adjusted mean) ([1]; baseline to 47 h, ANCOVA, n=22): -0.01 mL/g/min
- Mid perfusion reserve index, change from baseline (adjusted mean) ([1]; baseline to 47 h, ANCOVA, n=22): -0.26
- Mid MBF stress, change from baseline (adjusted mean) ([1]; baseline to 47 h, ANCOVA, n=23): -0.27 mL/g/min
- Mean global MBF stress, change from baseline (adjusted mean) ([1]; baseline to 47 h, adenosine stress, 48 h IV infusion 30 µg/kg/day, ANCOVA, n=23): -0.22 mL/g/min
- Global MPR, estimate of difference (serelaxin vs placebo), posterior median [1, 9]: -0.11
- Mean global MBF rest, estimate of difference (serelaxin vs placebo), posterior median [1, 9]: 0.05 mL/g/min
- Mean global MBF stress, estimate of difference (serelaxin vs placebo), posterior median [1, 9]: -0.05 mL/g/min
- Global MPR, change from baseline, within treatment posterior median [1, 10]: -0.25
- Mean global MBF rest, change from baseline, within treatment posterior median [1, 10]: 0.01 mL/g/min
- Mean global MBF stress, change from baseline, within treatment posterior median ([1]; baseline to day 3, Bayesian analysis, non-informative priors, n=23): -0.22 mL/g/min
- Mean global MBF rest, adjusted mean difference serelaxin versus placebo ([1]; change baseline to 47 h, 48 h IV infusion 30 µg/kg/day, ANCOVA): 0.05 mL/g/min
- Global MPR, adjusted mean difference serelaxin versus placebo [1, 11]: -0.11
- Mid MBF rest, adjusted mean difference serelaxin versus placebo [1, 11]: 0.06 mL/g/min
- Mid MBF stress, adjusted mean difference serelaxin versus placebo [1, 11]: -0.11 mL/g/min
- Mid perfusion reserve index, adjusted mean difference serelaxin versus placebo [1, 11]: -0.19
- Mean global MBF stress, adjusted mean difference serelaxin versus placebo ([1]; change baseline to 47 h, adenosine stress, ANCOVA): -0.05 mL/g/min
- Endothelin-1 change from baseline, geometric mean ratio to baseline (95% CI) (endothelin-1; 24 h, n=27): 0.82 (0.68, 0.99)
- Endothelin-1 change from baseline, geometric mean ratio to baseline (95% CI) (endothelin-1; 48 h, n=28): 0.82 (0.70, 0.96)
- Endothelin-1 change from baseline, geometric mean ratio to baseline (95% CI) (endothelin-1; [12]): 0.82
- Endothelin-1 change from baseline, geometric mean ratio to baseline (95% CI) (endothelin-1; 54 h, n=26): 0.84 (0.73, 0.96)
- Endothelin-1 change from baseline, geometric mean ratio to baseline (95% CI) (endothelin-1; Day 30, n=29): 0.93 (0.77, 1.13)
- Endothelin-1 change from baseline, geometric mean ratio to baseline (95% CI) (endothelin-1; Day 180, n=29): 0.88 (0.69, 1.12)
- Endothelin-1, geo-mean (95% CI) (endothelin-1; 0 h (pre-dose baseline), n=29): 0.874 (0.630, 1.212) pmol/L
- Endothelin-1, geo-mean (95% CI) (endothelin-1; 24 h, n=27): 0.6732 (0.4626, 0.9796) pmol/L
- Endothelin-1, geo-mean (95% CI) (endothelin-1; 48 h, n=28): 0.6835 (0.4647, 1.0054) pmol/L
- Endothelin-1, geo-mean (95% CI) (endothelin-1; 54 h, n=26): 0.7535 (0.5098, 1.1138) pmol/L
- Endothelin-1, geo-mean (95% CI) (endothelin-1; Day 30, n=29): 0.8145 (0.5881, 1.1279) pmol/L
- Endothelin-1, geo-mean (95% CI) (endothelin-1; Day 180, n=29): 0.7664 (0.5436, 1.0806) pmol/L
- Cystatin C change from baseline, geometric mean ratio to baseline (95% CI) (cystatin C; 24 h, n=27): 0.92 (0.89, 0.94)
- Cystatin C change from baseline, geometric mean ratio to baseline (95% CI) (cystatin C; 48 h, n=28): 0.93 (0.91, 0.96)
- Cystatin C change from baseline, geometric mean ratio to baseline (95% CI) (cystatin C; [12]): 0.93
- Cystatin C change from baseline, geometric mean ratio to baseline (95% CI) (cystatin C; 54 h, n=27): 0.87 (0.80, 0.94)
- Cystatin C change from baseline, geometric mean ratio to baseline (95% CI) (cystatin C; 54 h, n=27, listed as serelaxin): 0.87
- Cystatin C change from baseline, geometric mean ratio to baseline (95% CI) (cystatin C; Day 30, n=29): 0.97 (0.93, 1.00)
- Cystatin C change from baseline, geometric mean ratio to baseline (95% CI) (cystatin C; Day 180, n=29): 0.98 (0.89, 1.07)
- Cystatin C, geo-mean (95% CI) (cystatin C; 0 h (pre-dose baseline), n=29): 0.931 (0.876, 0.990) mg/L
- Cystatin C, geo-mean (95% CI) (cystatin C; 0 h (pre-dose baseline), n=29, listed as serelaxin): 0.93 mg/L
- Cystatin C, geo-mean (95% CI) (cystatin C; 24 h, n=27): 0.839 (0.788, 0.893) mg/L
- Cystatin C, geo-mean (95% CI) (cystatin C; 48 h, n=28): 0.867 (0.812, 0.926) mg/L
- Cystatin C, geo-mean (95% CI) (cystatin C; 54 h, n=27): 0.796 (0.721, 0.878) mg/L
- Cystatin C, geo-mean (95% CI) (cystatin C; Day 30, n=29): 0.899 (0.842, 0.960) mg/L
- Cystatin C, geo-mean (95% CI) (cystatin C; Day 180, n=29): 0.908 (0.821, 1.004) mg/L
